Reference: the NIST ThermoML archive (doi:10.1021/je700055p)
± gives the expanded uncertainty stated by the source.

Assay: relative permittivity at various frequencies (dimensionless)
Settings: 101.3 kPa, Liquid, Frequency=1 MHz, Coaxial cylinder capacitor

CC#N [acetonitrile]
Settings	relative permittivity
288.15 K	37.52 ± 0.17
293.15 K	36.62 ± 0.16
298.15 K	35.88 ± 0.16
303.15 K	35.15 ± 0.15
308.15 K	34.45 ± 0.15
313.15 K	33.75 ± 0.15
318.15 K	33.01 ± 0.14
323.15 K	32.36 ± 0.14
328.15 K	31.62 ± 0.14
333.15 K	31.05 ± 0.13
